A short description of the data set: Solubility of ubiquinone-10 in aqueous methanol solution. In kind it is physicochemical. Conditions: aqueous methanol solutions of varying concentration at 20, 30, 50 and 70° C. (FIG. 1). From the text:
Using a standard ubiquinone-10 (manufactured by Wako Pure Chemical Industries Co., Ltd.), the solubility of ubiquinone-10 is an aqueous methanol solution was examined in terms of the relation between the concentration of the solution and temperature.

The values that follow come from patent US20050153406A1, “Process for producing solution containing ubiquinone-10” (priority 2002, published 2005).

In the case of `COC1=C(OC)C(=O)C(C/C=C(\C)CC/C=C(\C)CC/C=C(\C)CC/C=C(\C)CC/C=C(\C)CC/C=C(\C)CC/C=C(\C)CC/C=C(\C)CC/C=C(\C)CCC=C(C)C)=C(C)C1=O` [ubiquinone-10], the “solubility of ubiquinone-10 in aqueous methanol solution” value is “increased in proportion to the methanol concentration and the temperature of the aqueous methanol solution”.
